Laboratory results reported in US20260076982A1, “Prodrugs of Cannbidiol [CBD]-Type Phytocannabinoids and a Process for Preparation Thereof” (priority 2022, published 2026).

How the values were obtained:
[1] = Ex vivo human plasma stability / release kinetic study of CBD prodrugs; type: in vitro ADME; conditions: human blood plasma with citrate buffer; for prodrug left after 24 h / concentration of cannabidiol (B1) released from prodrug after 24 h / concentration of cannabidiol (B1) at start of release: 37° C.; for stability / conversion of prodrug in plasma: over 24 h; for concentration of cannabidiol (B1) released from prodrug after 24 h: HPLC; for concentration of cannabidiol (B1) at start of release: initial value of the release range
Protocol: For the preparation of citrate buffer solution (pH=7.6), 100 ml of HPLC water, 0.25 M sucrose and 40 mM sodium citrate were taken.
To construct a calibration curve, […] different concentration such as 0.78, 1.56, 3.12, 6.25, 12.5, 25, 50 mg/ml of CBD based prodrugs and the parent cannabidiol were prepared. All sample were analyzed by 4.6×250 mm, 5 μm end capped RP-C18 column and the mobile phase containing buffer (0.1% formic acid in water and 0.1% formic acid in acetonitrile) and in some case methanol were used at the flow rate of 1 mL/min at column temperature of 25° C. at 210 nm, 190 nm, 254 nm wavelength range. A volume of 10 μL was injected and a total run time of the assay range was between 15-40 mins. The markers were estimated by HPLC using gradient technique.
For the preparation of plasma sample, fresh 20 ml of human blood was taken to which 2 ml of citrate buffer was added and then vortex it for about 5 minutes. Immediately after this, the mixture was centrifuged at 8000 rpm for 20 minutes, resulting in the separation of two-layer like RBC and plasma (ethical approval number 1EC/GMC/Cat A/2020/267).
To check the stability of prodrugs in plasma, stock solution of prodrug in DMSO (5 mg/2 ml) was prepared and placed at −20° C. The plasma sample of 50 μl was taken in different eppendorf's followed by the addition of 5 μl prodrug solution, vertex for 2 min., incubated at 37° C. at the different time point (Schedule provided in Table 1). After 24 h, all the sample were added with 200 μl MeOH with the help of vertex for about 2 minutes followed by centrifuge for about 10 minutes with 4000 rpm and two layers of sample were separated. The upper layer of methanol sample was taken and immediately the methanol sample was analyzed by 4.6×250 mm, 5 μm end capped RP-C18 column and the mobile phase containing buffer (0.1% formic acid in water and 0.1% formic acid in acetonitrile) and in some case methanol were used at the flow rate of 1 mL/min at column temperature of 25° C. at 210 nm, 190 nm, 254 nm wavelength range. A volume of 10 μL was injected and a total run time of the assay range was 15-40 mins. The markers were estimated by HPLC using gradient technique. The results are depicted in FIG. 1 to FIG. 10.

[2] = published studies; cited from earlier work

Row | Compound | prodrug left after 24 h [1] | concentration of prodrug at the initial time point (Pre-treatment) [1] [%] | stability / conversion of prodrug in plasma [1] | further results
1 | C=C(C)[C@@H]1CCC(C)=C[C@H]1c1c(O)cc(CCCCC)cc1OC(=O)CN1CCOCC1 [Compound A1a, O-(2-morpholinoacetyl) cannabidiol] | 5.5% | 49.1 |  | 
2 | C=C(C)[C@@H]1CCC(C)=C[C@H]1c1c(OC(=O)CN2CCOCC2)cc(CCCCC)cc1OC(=O)CN1CCOCC1 [Compound A1b, O,O-bis-(2-morpholinoacetyl) cannabidiol] |  |  | immediately converted into mono substituted CBD derivative | 
3 | C=C(C)[C@@H]1CCC(C)=C[C@H]1c1c(O)cc(CCCCC)cc1OC(=O)CN1CCC(c2ccccc2)CC1 [Compound A2a, O-{2-(4-phenylpiperidin-1-yl)acetyl} cannabidiol] |  |  | quite stable | 
4 | C=C(C)[C@@H]1CCC(C)=C[C@H]1c1c(O)cc(CCCCC)cc1OC(=O)CN1CCC(O)CC1 [Compound A3a, O-{2-(4-hydroxypiperidin-1-yl)acetyl} cannabidiol] | below detection limit | 49.2 |  | 
5 | C=C(C)[C@@H]1CCC(C)=C[C@H]1c1c(O)cc(CCCCC)cc1OC(=O)CN1CCN(C2CC2)CC1 [Compound A5a, O-{2-(4-cyclopropylpiperazin-1-yl)acetyl} cannabidiol] | 11.1% | 51.4 |  | concentration of cannabidiol (B1) released from prodrug after 24 h [1]: 17.4%; concentration of cannabidiol (B1) at start of release [1]: 0%
6 | C=C(C)[C@@H]1CCC(C)=C[C@H]1c1c(OC(=O)CN2CCN(C3CC3)CC2)cc(CCCCC)cc1OC(=O)CN1CCN(C2CC2)CC1 [Compound A5b, O,O-bis-{2-(4-cyclopropylpiperazin-1-yl)acetyl} cannabidiol] |  |  | immediately converted into mono substituted CBD derivative | time after which release of CBD (B1) started [1]: > 16 h; concentration of cannabidiol (B1) released from prodrug after 24 h [1]: 8.8%
7 | C=C(C)[C@@H]1CCC(C)=C[C@H]1c1c(O)cc(CCCCC)cc1OC(=O)CN1CCN(C(C)C)CC1 [Compound A6a, O-{2-(4-isopropylpiperazin-1-yl)acetyl} cannabidiol] | 11.1% | 51.3 |  | concentration of cannabidiol (B1) released from prodrug after 24 h [1]: 26.8%; concentration of cannabidiol (B1) at start of release [1]: 0.6%
8 | C=C(C)[C@@H]1CCC(C)=C[C@H]1c1c(O)cc(CCCCC)cc1OC(=O)CN1CCN(C)CC1 [Compound A7a, O-{2-(4-methylpiperazin-1-yl)acetyl} cannabidiol] | 0.7% | 49.6 |  | 
9 | C=C(C)[C@@H]1CCC(C)=C[C@H]1c1c(O)cc(CCCCC)cc1OC(=O)CN1CCN(c2ccccc2)CC1 [Compound A8a, O-{2-(4-phenylpiperazin-1-yl)acetyl} cannabidiol] |  |  | quite stable | 
10 | C=C(C)[C@@H]1CCC(C)=C[C@H]1c1c(O)cc(CCCCC)cc1OC(=O)CN1CCCC1 [Compound A10a, O-{2-(pyrrolidin-1-yl)acetyl} cannabidiol] | 1.9% | 51.3 |  | 
11 | C=C(C)[C@@H]1CCC(C)=C[C@H]1c1c(O)cc(CCCCC)cc1O [Compound B1, cannabidiol] |  |  |  | plasma protein binding [2]: > 94%
